Results on nine compounds are retold here after patent publication US8551937B2, “Peptide having an extending action for half-life of object peptide in plasma” (priority 2008, dated 2013).

Data set [1] can be described thus: Motilin immunoreactivity concentration in plasma, half-life after intravenous administration (Example 6). It is filed as in vivo, rat. The note with it: for half-life: SD, rat, plasma, 10 nmol/kg, male rats, N = 3, read-out: T½ Mean Value; for disappearance half-time extending action in vivo compared with native motilin: rats.
Protocol: The experiment was carried out using rats into which polyethylene tube (PE-50 manufactured by Clay Adams) was previously inserted into thigh artery under an anesthetized condition with Nembutal. As to a test system, male SD strain rats (Nippon Charles River) of 7 weeks age were used where one group comprised 3 rats. Human type motilin or a derivative thereof in a dose of 10 nmol/kg was administered into tail vein of the rat and the blood before the administration and until 60 minutes after the administration was collected by a polyethylene tube inserted into the thigh artery. To the collected blood were added EDTA (manufactured by Dojin Laboratories) and aprotinin (manufactured by Bayer) as a stabilizer and an anti-coagulant, respectively and the plasma was separated therefrom by centrifugal separation.
Data set [2] is described as follows: Motilin immunoreactivity concentration in plasma, half-life after intravenous administration (Example 8). The conditions noted are these: male, SD, rat, in vivo, iv, 10 nmol/kg. In outline: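 Male SD rats (7 weeks, n=3/group) received human motilin or derivative at 10 nmol/kg i.v. via tail vein; arterial blood was sampled up to 60 min, with EDTA and aprotinin added. Plasma motilin immunoreactivity was measured by competitive RIA using a rabbit polyclonal antibody against native motilin residues 1–12 and ^125I-[Tyr^7] human motilin tracer.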

Structures are written as SMILES. Where a SMILES comes first, the peptide text is derived from it.

Regarding `CC[C@H](C)[C@H](NC(=O)[C@@H]1CCCN1C(=O)[C@@H](NC(=O)[C@@H](N)Cc1ccccc1)C(C)C)C(=O)N[C@@H](Cc1ccccc1)C(=O)N[C@H](C(=O)N[C@@H](Cc1ccc(O)cc1)C(=O)NCC(=O)N[C@@H](CCC(=O)O)C(=O)N[C@@H](CC(C)C)C(=O)N[C@@H](CCC(N)=O)C(=O)N[C@@H](CCCNC(=N)N)C(=O)N[C@H](C(=O)N[C@@H](CCC(N)=O)C(=O)N[C@@H](CCC(N)=O)C(=O)N[C@@H](CCCNC(=N)N)C(=O)N[C@@H](CCCCN)C(=O)N[C@@H](CCC(=O)O)C(=O)N[C@@H](CO)C(=O)O)C(C)C)[C@@H](C)O` [Chimeric motilin (L), FVPIFTYGELQRVQQRKES] (H-FVPIFTYGELQRVQQRKES-OH; N-terminus and C-terminus assumed), in data set [1], the half-life is 4.89 min and the “disappearance half-time extending action in vivo compared with native motilin” value was “unable to be confirmed”.
For `CC[C@H](C)[C@H](NC(=O)[C@@H]1CCCN1C(=O)[C@@H](NC(=O)[C@@H](N)Cc1ccccc1)C(C)C)C(=O)N[C@@H](Cc1ccccc1)C(=O)N[C@H](C(=O)N[C@@H](Cc1ccc(O)cc1)C(=O)NCC(=O)N[C@@H](CCC(=O)O)C(=O)N[C@@H](CC(C)C)C(=O)N[C@@H](CCC(N)=O)C(=O)N[C@@H](CCCNC(=N)N)C(=O)N[C@H](C(=O)N[C@@H](CCC(N)=O)C(=O)N[C@@H](CCC(N)=O)C(=O)N[C@@H](CCCNC(=N)N)C(=O)N[C@@H](CCCCN)C(=O)N[C@@H](CCC(=O)O)C(=O)N[C@@H](CO)C(=O)N[C@@H](CCCCN)C(=O)N[C@@H](CCCCN)C(=O)N1CCC[C@H]1C(=O)N1CCC[C@H]1C(=O)N[C@@H](C)C(=O)N[C@@H](CCCCN)C(=O)N[C@@H](CC(C)C)C(=O)N[C@@H](CCC(N)=O)C(=O)O)C(C)C)[C@@H](C)O` [Chimeric motilin (H)] (H-FVPIFTYGELQRVQQRKESKKPPAKLQ-OH; N-terminus and C-terminus assumed), the half-life in data set [1] is 10.4 min.
Same read-out and setting: the result for `CC[C@H](C)[C@H](NC(=O)[C@@H]1CCCN1C(=O)[C@@H](NC(=O)[C@@H](N)Cc1ccccc1)C(C)C)C(=O)N[C@@H](Cc1ccccc1)C(=O)N[C@H](C(=O)N[C@@H](Cc1ccc(O)cc1)C(=O)NCC(=O)N[C@@H](CCC(=O)O)C(=O)N[C@@H](CC(C)C)C(=O)N[C@@H](CCC(N)=O)C(=O)N[C@@H](CCCNC(=N)N)C(=O)N[C@@H](CCC(N)=O)C(=O)N[C@@H](CCCNC(=N)N)C(=O)N[C@@H](CCCCN)C(=O)N[C@@H](CCC(=O)O)C(=O)N[C@@H](CO)C(=O)N[C@@H](CCCCN)C(=O)N[C@@H](CCCCN)C(=O)N1CCC[C@H]1C(=O)N1CCC[C@H]1C(=O)N[C@@H](C)C(=O)N[C@@H](CCCCN)C(=O)N[C@@H](CC(C)C)C(=O)N[C@@H](CCC(N)=O)C(=O)N1CCC[C@H]1C(=O)N[C@@H](CCCNC(=N)N)C(=O)O)[C@@H](C)O` [Chimeric motilin (E)] (H-FVPIFTYGELQRQRKESKKPPAKLQPR-OH; N-terminus and C-terminus assumed) reads 8.03 min.
Regarding `CC[C@H](C)[C@H](NC(=O)[C@@H]1CCCN1C(=O)[C@@H](NC(=O)[C@@H](N)Cc1ccccc1)C(C)C)C(=O)N[C@@H](Cc1ccccc1)C(=O)N[C@H](C(=O)N[C@@H](Cc1ccc(O)cc1)C(=O)NCC(=O)N[C@@H](CCC(=O)O)C(=O)N[C@@H](CC(C)C)C(=O)N[C@@H](CCC(N)=O)C(=O)N[C@@H](CCCNC(=N)N)C(=O)N[C@@H](CO)C(=O)N[C@@H](CCCCN)C(=O)N[C@@H](CCCCN)C(=O)N1CCC[C@H]1C(=O)N1CCC[C@H]1C(=O)N[C@@H](C)C(=O)N[C@@H](CCCCN)C(=O)N[C@@H](CC(C)C)C(=O)N[C@@H](CCC(N)=O)C(=O)N1CCC[C@H]1C(=O)N[C@@H](CCCNC(=N)N)C(=O)O)[C@@H](C)O` [Chimeric motilin (G)] (H-FVPIFTYGELQRSKKPPAKLQPR-OH; N-terminus and C-terminus assumed), in data set [1], the half-life was 5.25 min and the “disappearance half-time extending action in vivo compared with native motilin” value was “unable to be confirmed”.
Consider `CC[C@H](C)[C@H](NC(=O)[C@@H]1CCCN1C(=O)[C@@H](NC(=O)[C@@H](N)Cc1ccccc1)C(C)C)C(=O)N[C@@H](Cc1ccccc1)C(=O)N[C@H](C(=O)N[C@@H](Cc1ccc(O)cc1)C(=O)NCC(=O)N[C@@H](CCC(=O)O)C(=O)N[C@@H](CC(C)C)C(=O)N[C@@H](CCC(N)=O)C(=O)N[C@@H](CCCNC(=N)N)C(=O)N[C@@H](CCCCN)C(=O)N[C@@H](CCC(=O)O)C(=O)N[C@@H](CO)C(=O)N[C@@H](CCCCN)C(=O)N[C@@H](CCCCN)C(=O)N1CCC[C@H]1C(=O)N1CCC[C@H]1C(=O)N[C@@H](C)C(=O)N[C@@H](CCCCN)C(=O)N[C@@H](CC(C)C)C(=O)N[C@@H](CCC(N)=O)C(=O)N1CCC[C@H]1C(=O)N[C@@H](CCCNC(=N)N)C(=O)O)[C@@H](C)O` [Chimeric motilin (F)] (H-FVPIFTYGELQRKESKKPPAKLQPR-OH; N-terminus and C-terminus assumed), for which, in data set [1], the half-life was found to be 9.37 min.
Regarding `CC[C@H](C)[C@H](NC(=O)[C@@H]1CCCN1C(=O)[C@@H](NC(=O)[C@@H](N)Cc1ccccc1)C(C)C)C(=O)N[C@@H](Cc1ccccc1)C(=O)N[C@H](C(=O)N[C@@H](Cc1ccc(O)cc1)C(=O)NCC(=O)N[C@@H](CCC(=O)O)C(=O)N[C@@H](CC(C)C)C(=O)N[C@@H](CCC(N)=O)C(=O)N[C@@H](CCCNC(=N)N)C(=O)N[C@@H](CCC(=O)O)C(=O)N[C@@H](Cc1c[nH]cn1)C(=O)N[C@@H](CCC(N)=O)C(=O)N[C@@H](CCCNC(=N)N)C(=O)N[C@H](C(=O)N[C@@H](CCC(N)=O)C(=O)N[C@@H](CCC(N)=O)C(=O)N[C@@H](CCCNC(=N)N)C(=O)N[C@@H](CCCCN)C(=O)N[C@@H](CCC(=O)O)C(=O)N[C@@H](CO)C(=O)N[C@@H](CCCCN)C(=O)N[C@@H](CCCCN)C(=O)N1CCC[C@H]1C(=O)N1CCC[C@H]1C(=O)N[C@@H](C)C(=O)N[C@@H](CCCCN)C(=O)N[C@@H](CC(C)C)C(=O)N[C@@H](CCC(N)=O)C(=O)N1CCC[C@H]1C(=O)N[C@@H](CCCNC(=N)N)C(=O)O)C(C)C)[C@@H](C)O` [Chimeric motilin (B)] (H-FVPIFTYGELQREHQRVQQRKESKKPPAKLQPR-OH; N-terminus and C-terminus assumed), the half-life in data set [1] amounted to 11.1 min.
For `CC[C@H](C)[C@H](NC(=O)[C@@H]1CCCN1C(=O)[C@@H](NC(=O)[C@@H](N)Cc1ccccc1)C(C)C)C(=O)N[C@@H](Cc1ccccc1)C(=O)N[C@H](C(=O)N[C@@H](Cc1ccc(O)cc1)C(=O)NCC(=O)N[C@@H](CCC(=O)O)C(=O)N[C@@H](CC(C)C)C(=O)N[C@@H](CCC(N)=O)C(=O)N[C@@H](CCCNC(=N)N)C(=O)N[C@H](C(=O)N[C@@H](CCC(N)=O)C(=O)N[C@@H](CCC(N)=O)C(=O)N[C@@H](CCCNC(=N)N)C(=O)N[C@@H](CCCCN)C(=O)N[C@@H](CCC(=O)O)C(=O)N[C@@H](CO)C(=O)N[C@@H](CCCCN)C(=O)N[C@@H](CCCCN)C(=O)N1CCC[C@H]1C(=O)N1CCC[C@H]1C(=O)N[C@@H](C)C(=O)N[C@@H](CCCCN)C(=O)N[C@@H](CC(C)C)C(=O)N[C@@H](C)C(=O)N[C@@H](C)C(=O)N[C@@H](CC(C)C)C(=O)N[C@@H](CCCCN)C(=O)N[C@@H](C)C(=O)O)C(C)C)[C@@H](C)O` [Chimeric motilin (VI)(MG-H1)] (H-FVPIFTYGELQRVQQRKESKKPPAKLAALKA-OH; N-terminus and C-terminus assumed), in data set [2], the half-life was 9.94 min.
On the same count and under the same terms, the result for `CC[C@H](C)[C@H](NC(=O)[C@@H]1CCCN1C(=O)[C@@H](NC(=O)[C@@H](N)Cc1ccccc1)C(C)C)C(=O)N[C@@H](Cc1ccccc1)C(=O)N[C@H](C(=O)N[C@@H](Cc1ccc(O)cc1)C(=O)NCC(=O)N[C@@H](CCC(=O)O)C(=O)N[C@@H](CC(C)C)C(=O)N[C@@H](CCC(N)=O)C(=O)N[C@@H](CCCNC(=N)N)C(=O)N[C@H](C(=O)N[C@@H](CCC(N)=O)C(=O)N[C@@H](CCC(N)=O)C(=O)N[C@@H](CCCNC(=N)N)C(=O)N[C@@H](CCCCN)C(=O)N[C@@H](CCC(=O)O)C(=O)N[C@@H](CO)C(=O)N[C@@H](CCCCN)C(=O)N[C@@H](CCCCN)C(=O)N1CCC[C@H]1C(=O)N1CCC[C@H]1C(=O)N[C@@H](C)C(=O)N[C@@H](CCC(=O)O)C(=O)N[C@@H](CC(C)C)C(=O)N[C@@H](C)C(=O)N[C@@H](C)C(=O)N[C@@H](CC(C)C)C(=O)N[C@@H](CCC(=O)O)C(=O)N[C@@H](C)C(=O)O)C(C)C)[C@@H](C)O` [Chimeric motilin (VII)(MG-H3)] (H-FVPIFTYGELQRVQQRKESKKPPAELAALEA-OH; N-terminus and C-terminus assumed) reads 12.8 min; that for `CC[C@H](C)[C@H](NC(=O)[C@@H]1CCCN1C(=O)[C@@H](NC(=O)[C@@H](N)Cc1ccccc1)C(C)C)C(=O)N[C@@H](Cc1ccccc1)C(=O)N[C@H](C(=O)N[C@@H](Cc1ccc(O)cc1)C(=O)NCC(=O)N[C@@H](CCC(=O)O)C(=O)N[C@@H](CC(C)C)C(=O)N[C@@H](CCC(N)=O)C(=O)N[C@@H](CCCNC(=N)N)C(=O)N[C@H](C(=O)N[C@@H](CCC(N)=O)C(=O)N[C@@H](CCC(N)=O)C(=O)N[C@@H](CCCNC(=N)N)C(=O)N[C@@H](CCCCN)C(=O)N[C@@H](CCC(=O)O)C(=O)N[C@@H](CC(C)C)C(=O)N[C@@H](CCCCN)C(=O)N[C@@H](CCCCN)C(=O)N1CCC[C@H]1C(=O)N1CCC[C@H]1C(=O)N[C@@H](C)C(=O)N[C@@H](CCCCN)C(=O)N[C@@H](CC(C)C)C(=O)N[C@@H](CCC(N)=O)C(=O)N1CCC[C@H]1C(=O)N[C@@H](CCCNC(=N)N)C(=O)O)C(C)C)[C@@H](C)O` [Chimeric motilin (R)(MG-18S/L)] (H-FVPIFTYGELQRVQQRKELKKPPAKLQPR-OH; N-terminus and C-terminus assumed), 9.13 min.
